# In patent publication US20230165276A1, “NOVEL USE OF SUBSTITUTED 2H-CHROMENS AND THEIR DERIVATIVES” (DSM IP ASSETS B.V., priority 2018, published 2023):
# Legend:
# [1] = Oxipres antioxidant efficacy value (EV) in poultry meal; conditions: 70° C., 5 bar oxygen, 130 hours, equimolar to BHT, EV relative to BHT (EV=1)
# Method: (§1) Oxidative stability was assessed using an Oxipres (Mikrolab Aarhus A/S, Hojbjerg, Denmark). The ML OXIPRES® is designed to monitor the oxidation of heterogeneous products. Consumption of oxygen results in a pressure drop which is measured by means of pressure transducers. The samples are heated to accelerate the process and shorten the analysis time (Mikrolab Aarhus 2012).
# (§2) Sample weights were 50 g. They were loaded into the Oxipres vessels and placed inside the stainless-steel pressure vessel and sealed. The pressure vessels were purged with pure oxygen and filled to an initial oxygen pressure of 5 bar and maintained at 70° C. during measurement (D. Ying, L. Edin, L. Cheng, L. Sanguansri, M. A. Augustin, LWT-Food Science and Technology 2015, 62, 1105-1111: “Enhanced oxidative stability of extruded product containing polyunsaturated oils.”).
# (§3) The oxygen pressure was recorded as function of time. After sample load and temperature rise the pressure in the device is increasing within 10 hours. Thereafter it is decreasing. Consequently, the starting pressure is considered to be the pressure after 10 hours. The analysis ends after 130 hours at 70° C. The oxygen consumption ‘02’ of the tested sample is calculated as follows: […]
# (§4) A factor of protection called ‘EV’ (Efficacy Value) was developed to quantify with a relative number (relative to BHT) the antioxidant effect of the tested candidates. EV was calculated as follows:
# (§5) EV, being relative to BHT (3,5-di-tert-butyl-4-hydroxy-toluene) (EV=1), makes it possible to compare the antioxidant compounds in a defined feed application.
# (§6) Compounds of formulae (1) to (7) were mixed each into the matrix 1, 2 or 3 (pet food, poultry meal, fish meal) in an equimolar ratio compared to BHT. Batches of 200 g feed were produced in order to handle a minimum of 30 mg of antioxidant. First, a 1% pre-dilution of the antioxidant with the feed material was made. Then this pre-dilution was added to the final batch, mixed, sieved (1.25 mm sieve) and mixed using a turbula® mixer. Thereafter 55 g of the final batch were packed into polyethylene bags and stored at 4° C. till time of Oxipres assay. Spare sample were stored at 4° C. An efficacy value 0.7 has been considered as acceptable, an efficacy value the efficacy value of alpha-tocopherol as good, and an efficacy value the efficacy value of BHT as very good.
# [2] = Oxipres antioxidant efficacy value (EV) in fish meal; conditions: 70° C., 5 bar oxygen, 130 hours, equimolar to BHT, EV relative to BHT (EV=1)
# Method: as §1, §2, §3, §4, §5, §6
# [3] = Oxipres antioxidant efficacy value (EV) in pet food; conditions: 70° C., 5 bar oxygen, 130 hours, equimolar to BHT, EV relative to BHT (EV=1)
# Method: as §1, §2
# as §3, with “The analysis ends after 130 hours at 70° C.” left out
# A factor of protection called ‘EV’ (Efficacy Value) was developed to quantify with a relative number (relative to BHT) the antioxidant effect of the tested candidates. EV was calculated as follows: […]
# Solubility in fish oil = assay type: physicochemical
# Method: (§7) Two different levels of compound of formula (1) (0.5 and 2 mg/g) were used in 5 g of natural fish oil (Product Code: FG30TG) and used in the Oxidative Stability Instrument at 80° C. with the air flow rate of 40 psi. The solubility of different amounts and types of antioxidants used in 051 was checked before and after the application. […] Compound of formula (1) was used in the Oxidative Stability instruments under the same conditions used for fish oil evaluations. Also, the synergistic effect of compound of formula (1) with ascorbyl palmitate (AP) was determined using the OSI values. The polymers generated at the end of the experiment were determined by LC.
# [4] = Storage stability study of fish oil (PV, p-AV, CD); conditions: 2 mg/g in FG30TG
# Method: Tables 12, 13 and 14 show the PV (peroxide value), p-AV (p-anisidine value) and CD (conjugated dienoic acid in %) of the fish oil samples stabilized with compound of formula (1). For the storage stability study compound of formula (1) was used in fish oil at only 2 mg/g level. […] MNT had the lowest PV values. There was no considerable variation in p-AV and CD (Tables 13-14) during the storage.
# [5] = Oil Stability Index in crude algal oil
# Method: as §7
# This algal oil already contained about 1.6 mg/g of MNT.
# [6] = Oil Stability Index (Oxidative Stability Instrument) in FG30TG fish oil
# Method: Compound of formula (1) was evaluated primarily for its oxidative stability by the Oil Stability Index measurements.
# as §7
# [7] = Polymers generated at the end of the fish oil stabilization experiment (LC); conditions: 2 mg/g in FG30TG oil, without AP
# Method: as §7
# Polymers generated at the end of the stabilization experiment of fish oil with compound of formula (1) and AP are shown in Table 11.
# Polymers are combination of complex compounds generated at the end of the oxidation cascade of unsaturated fatty acids and, they indicate the levels of overall oxidation of the matrix. The generation of such polymers in fish oil containing compound of formula (1) could be reduced considerably when AP was added as a synergistic compound (Table 11).
structure (smiles),measurement,setting,value
"Cc1cc(C(C)(C)C)c(O)c(C(C)(C)C)c1 [BHT, 3,5-di-tert-butyl-4-hydroxy-toluene, reference compound]",EV in poultry meal,[1],1
same,EV in Fish meal,[2],1
"CC1=CC(C)(C)Oc2ccc(O)cc21 [Compound of formula (1), 2,2,4-trimethyl-2H-chromen-6-ol]",EV in poultry meal,[1],1.10
same,EV in pet food,[3],0.97
same,"Solubility in fish oil, 80° C.",Solubility in fish oil; Amount 0.5 mg/g,Soluble
same,"Solubility in fish oil, Room temp.",Solubility in fish oil; Amount 0.5 mg/g,Soluble
same,"Solubility in fish oil, 80° C.",Solubility in fish oil; Amount 2.0 mg/g,Soluble
same,"Solubility in fish oil, Room temp.",Solubility in fish oil; Amount 2.0 mg/g,Soluble
same,EV in Fish meal,[2],0.94
same,CD (conjugated dienoic acid in %),[4]; 4 days,0.8%
same,PV (peroxide value),[4]; 4 days,2
same,p-AV (p-anisidine value),[4]; 4 days,4.4
same,CD (conjugated dienoic acid in %),[4]; 6 days,0.8%
same,PV (peroxide value),[4]; 6 days,2.6
same,p-AV (p-anisidine value),[4]; 6 days,7.2
same,CD (conjugated dienoic acid in %),[4]; 8 days,0.9%
same,PV (peroxide value),[4]; 8 days,3.8
same,p-AV (p-anisidine value),[4]; 8 days,6.8
same,CD (conjugated dienoic acid in %),[4]; 11 days,0.9%
same,PV (peroxide value),[4]; 11 days,6.8
same,p-AV (p-anisidine value),[4]; 11 days,7.6
same,CD (conjugated dienoic acid in %),[4]; 13 days,0.8%
same,PV (peroxide value),[4]; 13 days,9.8
same,p-AV (p-anisidine value),[4]; 13 days,8.1
same,CD (conjugated dienoic acid in %),[4]; 15 days,0.8%
same,PV (peroxide value),[4]; 17 days,12.1
same,p-AV (p-anisidine value),[4]; 17 days,8.5
same,CD (conjugated dienoic acid in %),[4]; Initial,0.7%
same,PV (peroxide value),[4]; Initial,0.9
same,p-AV (p-anisidine value),[4]; Initial,9.9
same,OSI,[5]; 0.5 mg/g added to crude algal oil already containing about 1.6 mg/g of MNT,16.60 h
same,OSI,[5]; 2 mg/g added to crude algal oil already containing about 1.6 mg/g of MNT,18.55 h
same,OSI,"[6]; Table 7, 0.5 mg/g in FG30TG fish oil, 80° C., air flow 40 psi",5.95 h
same,OSI,"[6]; Table 7, 2 mg/g in FG30TG fish oil, 80° C., air flow 40 psi",6.73 h
same,Protection Factor (%),"[6]; Table 8, 0.5 mg/g in FG30TG fish oil",25.26%
same,Protection Factor (%),"[6]; Table 8, 2 mg/g in FG30TG fish oil",41.58%
same,OSI,"[6]; Table 9, 2 mg/g in FG30TG fish oil, without AP",5.70 h
same,Protection Factor (%),"[6]; Table 10, 2 mg/g in FG30TG fish oil, without AP",23.1%
same,Polymers (%),[7],34.67%
"CC1(C)C=Cc2cc(O)ccc2O1 [Compound of formula (2), 2,2-dimethyl-2H-chromen-6-ol]",EV in poultry meal,[1],1.11
"CC1=CC(C)(C)Oc2c(C)c(C)c(O)c(C)c21 [Compound of formula (3), 2,2,4,5,7,8-hexamethyl-2H-chromen-6-ol]",EV in Fish meal,[2],0.89
"Cc1c(C)c2c(c(C)c1O)C=CC(C)(C)O2 [Compound of formula (4), 2,2,5,7,8-pentamethyl-2H-chromen-6-ol]",EV in Fish meal,[2],1.10
"CCOc1ccc2c(c1)C(C)=CC(C)(C)O2 [Compound of formula (5), 6-ethoxy-2,2,4-trimethyl-2H-chromene]",EV in Fish meal,[2],0.77
"O=c1ccc2cc(O)ccc2o1 [Compound of formula (6), 6-hydroxycoumarin]",EV in Fish meal,[2],0.75
"Oc1ccc2c(c1)C=CCO2 [Compound of formula (7), 2H-chromen-6-ol]",EV in Fish meal,[2],0.72
"Cc1c(C)c2c(c(C)c1O)CC[C@@](C)(CCC[C@H](C)CCC[C@H](C)CCCC(C)C)O2 [alpha-tocopherol, reference compound]",EV in poultry meal,[1],0.74
same,EV in pet food,[3],0.77
same,EV in Fish meal,[2],0.88
